Results: ChEMBL document CHEMBL4184164, “Design, synthesis and biological evaluation of novel oseltamivir derivatives as potent neuraminidase inhibitors” (Bioorg Med Chem Lett, 2017)

Test system: Influenza A virus
Experiment: microbe, parasite or virus in culture
Settings: A/WSN/1933(H1N1), MDCK

Row | Structure (SMILES) | IC50
1 | CCC(CC)[C@H](NC(C)=O)[C@@H]1[C@H](O)[C@@H](C(=O)O)C[C@H]1NC(=N)N [PERAMIVIR ANHYDROUS] | 1720 nM
2 | CCOC(=O)C1=C[C@@H](OC(CC)CC)[C@H](NC(C)=O)[C@@H](N)C1 [OSELTAMIVIR] | 579 nM

Target: T1, Sialidase (Clostridium perfringens, UniProt P10481)
T1 sequence (P10481 whole entry): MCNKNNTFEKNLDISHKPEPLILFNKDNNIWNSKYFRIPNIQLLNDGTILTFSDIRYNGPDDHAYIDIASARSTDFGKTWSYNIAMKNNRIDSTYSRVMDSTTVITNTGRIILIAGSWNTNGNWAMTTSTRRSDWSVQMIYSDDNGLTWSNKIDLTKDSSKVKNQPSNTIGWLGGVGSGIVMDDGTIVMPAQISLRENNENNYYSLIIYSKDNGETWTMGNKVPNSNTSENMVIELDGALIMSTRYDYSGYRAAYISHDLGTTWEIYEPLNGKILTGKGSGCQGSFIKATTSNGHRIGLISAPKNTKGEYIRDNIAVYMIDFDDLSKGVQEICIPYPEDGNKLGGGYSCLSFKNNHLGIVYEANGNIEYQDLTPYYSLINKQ
Experiment: Inhibition of Clostridium perfringenes neuraminidase activity using 4-methylumbelliferyl-1-alpha-D-N-acetylneuramic acid sodium salt hydrate as substrate by fluorescence based assay
Settings: read-out: IC50

Row | Structure (SMILES) | IC50
3 | CCC(CC)[C@H](NC(C)=O)[C@@H]1[C@H](O)[C@@H](C(=O)O)C[C@H]1NC(=N)N [PERAMIVIR ANHYDROUS] | 39600 nM
4 | CCOC(=O)C1=C[C@@H](OC(CC)CC)[C@H](NC(C)=O)[C@@H](N)C1 [OSELTAMIVIR] | 61100 nM

Same assay, conditions: read-out: pIC50 (converted)

Row | Structure (SMILES) | IC50
5 | CC(=O)N[C@@H]1[C@@H](N)CC(C(=O)O)=C[C@H]1OCc1ccccc1 | 619 nM
6 | CCC(CC)N[C@@H]1C=C(C(=O)O)C[C@H](N)[C@H]1NC(C)=O | 11 nM
7 | CCC(CC)N(C)[C@@H]1C=C(C(=O)O)C[C@H](N)[C@H]1NC(C)=O | 6 nM
8 | CC[C@H](C)O[C@@H]1C=C(C(=O)O)C[C@H](N)[C@H]1NC(C)=O | 10 nM
9 | CC[C@H](C)O[C@@H]1C=C(C(=O)O)C[C@H](NC(=N)N)[C@H]1NC(C)=O | 0.5 nM
10 | CC(=O)N[C@H]1[C@H](N(C)CCc2ccccc2)C=C(C(=O)O)C[C@@H]1N | 100 nM
11 | CCC(CC)O[C@@H]1C=C(C(=O)O)C[C@H](NC(=N)N)[C@H]1NC(C)=O | 0.5 nM
12 | CCCN(CC)[C@@H]1C=C(C(=O)O)C[C@H](N)[C@H]1NC(C)=O | 89.9 nM
13 | CCCN[C@@H]1C=C(C(=O)O)C[C@H](N)[C@H]1NC(C)=O | 200 nM
14 | CC(=O)N[C@@H]1[C@@H](N)CC(C(=O)O)=C[C@H]1OCCCc1ccc(-c2ccccc2)cc1 | 89.9 nM
15 | CC[C@H](CCc1ccccc1)O[C@@H]1C=C(C(=O)O)C[C@H](N)[C@H]1NC(C)=O | 12 nM
16 | CC(=O)N[C@@H]1[C@@H](N)CC(C(=O)O)=C[C@H]1OCC(C)C | 200 nM
17 | CCCO[C@@H]1C=C(C(=O)O)C[C@H](N=C(N)N)[C@H]1NC(C)=O | 2 nM
18 | CCCCCCC[C@H](CC)O[C@@H]1C=C(C(=O)O)C[C@H](N)[C@H]1NC(C)=O | 1 nM
19 | CC(=O)N[C@@H]1[C@@H](N)CC(C(=O)O)=C[C@H]1NC(=O)C(C)C | 6400 nM
20 | CCC(CC)O[C@@H]1C(F)=C(C(=O)O)C[C@H](N)[C@H]1NC(C)=O | 3 nM
21 | CC(=O)N[C@H]1[C@H](N(C)C2CCCCC2)C=C(C(=O)O)C[C@@H]1N | 200 nM

Row | Structure (SMILES) | IC50
22 | CCCN(CCC)[C@@H]1C=C(C(=O)O)C[C@H](N)[C@H]1NC(C)=O | 12 nM
23 | CC(=O)N[C@@H]1[C@@H](N)CC(C(=O)O)=C[C@H]1OC1CCCC1 | 22 nM
24 | CCCCN(CC)[C@@H]1C=C(C(=O)O)C[C@H](N)[C@H]1NC(C)=O | 84.9 nM
25 | COCO[C@@H]1C=C(C(=O)O)C[C@H](N)[C@H]1NC(C)=O | 2000 nM
26 | C=CC[C@H](CC)O[C@@H]1C=C(C(=O)O)C[C@H](N)[C@H]1NC(C)=O | 1 nM
27 | CC[C@@H](CC1CCCCC1)O[C@@H]1C=C(C(=O)O)C[C@H](N)[C@H]1NC(C)=O | 16 nM
28 | CC[C@@H](C)O[C@@H]1C=C(C(=O)O)C[C@H](NC(=N)N)[C@H]1NC(C)=O | 0.5 nM
29 | CCC(CC)C(=O)N[C@@H]1C=C(C(=O)O)C[C@H](N)[C@H]1NC(C)=O | 4000 nM
30 | CC(=O)N[C@@H]1[C@@H](N)CC(C(=O)O)=C[C@H]1OC(C)C | 180 nM
31 | CCC(=O)N[C@@H]1C=C(C(=O)O)C[C@H](N)[C@H]1NC(C)=O | 2700 nM
32 | CCCCO[C@@H]1C=C(C(=O)O)C[C@H](N=C(N)N)[C@H]1NC(C)=O | 3 nM
33 | CC[C@@H](CCC1CCCCC1)O[C@@H]1C=C(C(=O)O)C[C@H](N)[C@H]1NC(C)=O | 1 nM
34 | CC(=O)N[C@H]1[C@H](O)C=C(C(=O)O)C[C@@H]1N=C(N)N | 100 nM
35 | CC(=O)N[C@@H]1[C@@H](N)CC(C(=O)O)=C[C@H]1OCCC(F)(F)F | 225 nM
36 | CCCCN(C)[C@@H]1C=C(C(=O)O)C[C@H](N)[C@H]1NC(C)=O | 180 nM
37 | CC(=O)N[C@@H]1[C@@H](N)CC(C(=O)O)=C[C@H]1Oc1ccccc1 | 530 nM
